Assay results taken from publication PMC3319192 (Molecular Pharmaceutics, 2012).

Key:
wildtype OATP1B3 = target: T1, wildtype OATP1B3 (Homo sapiens, UniProt Q9NPD5)
T1 sequence (Q9NPD5 1-702): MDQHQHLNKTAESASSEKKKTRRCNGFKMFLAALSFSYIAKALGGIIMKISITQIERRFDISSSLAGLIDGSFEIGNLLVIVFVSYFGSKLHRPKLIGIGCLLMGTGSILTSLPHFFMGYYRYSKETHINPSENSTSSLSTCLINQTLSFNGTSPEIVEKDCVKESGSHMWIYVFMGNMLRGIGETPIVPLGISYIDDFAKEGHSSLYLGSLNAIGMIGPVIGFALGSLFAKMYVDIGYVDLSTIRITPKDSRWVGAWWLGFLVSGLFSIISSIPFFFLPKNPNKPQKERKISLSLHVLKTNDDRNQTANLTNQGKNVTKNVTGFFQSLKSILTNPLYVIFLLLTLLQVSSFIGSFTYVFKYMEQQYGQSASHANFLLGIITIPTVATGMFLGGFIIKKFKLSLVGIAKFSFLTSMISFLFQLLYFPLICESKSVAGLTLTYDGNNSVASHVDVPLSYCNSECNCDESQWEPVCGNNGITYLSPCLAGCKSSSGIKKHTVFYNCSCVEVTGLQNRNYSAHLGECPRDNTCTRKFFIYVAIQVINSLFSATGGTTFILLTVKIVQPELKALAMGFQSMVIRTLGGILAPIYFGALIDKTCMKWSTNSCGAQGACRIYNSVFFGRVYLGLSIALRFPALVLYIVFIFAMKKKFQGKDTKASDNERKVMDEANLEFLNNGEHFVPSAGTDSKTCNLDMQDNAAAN

OATP1B1 A45G/L545S/T615I = target: T2, OATP1B1 A45G/L545S/T615I (Homo sapiens, UniProt Q9Y6L6, A45G/L545S/T615I)
T2 sequence (Q9Y6L6 1-691 A45G/L545S/T615I): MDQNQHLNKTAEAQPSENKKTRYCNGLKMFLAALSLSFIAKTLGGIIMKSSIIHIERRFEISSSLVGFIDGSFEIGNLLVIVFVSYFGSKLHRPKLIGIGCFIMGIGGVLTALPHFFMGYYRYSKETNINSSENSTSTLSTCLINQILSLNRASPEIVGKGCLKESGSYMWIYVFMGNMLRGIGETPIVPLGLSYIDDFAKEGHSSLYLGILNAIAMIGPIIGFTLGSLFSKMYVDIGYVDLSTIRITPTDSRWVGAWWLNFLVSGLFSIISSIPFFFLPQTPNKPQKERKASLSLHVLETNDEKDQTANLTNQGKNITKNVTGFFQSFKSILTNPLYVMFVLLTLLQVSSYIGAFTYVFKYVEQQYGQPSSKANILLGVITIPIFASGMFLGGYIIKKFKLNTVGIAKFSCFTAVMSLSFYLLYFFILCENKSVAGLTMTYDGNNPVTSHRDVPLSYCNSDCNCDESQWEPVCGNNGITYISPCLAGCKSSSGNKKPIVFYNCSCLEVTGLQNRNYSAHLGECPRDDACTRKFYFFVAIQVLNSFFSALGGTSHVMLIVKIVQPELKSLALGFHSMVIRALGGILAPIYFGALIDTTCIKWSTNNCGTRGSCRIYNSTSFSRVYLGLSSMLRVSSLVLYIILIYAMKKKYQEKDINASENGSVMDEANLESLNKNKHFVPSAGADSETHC

Km (wildtype OATP1B3): 6.5 ± 2 µM | Km (OATP1B1 A45G/L545S/T615I): 15.4 ± 4.2 µM
Substance: L-aspartyl-L-tryosyl-L-methionylgylcyl-L-tryptophyl-L-methionyl-L-aspartyl-L-phenylalaninamide hydrogen sulfate ester [CCK-8]
